Data set [1] addresses T1, Cannabinoid receptor 1 (Homo sapiens, UniProt P21554). The data set is described as follows: Inverse agonist activity at human CB1 receptor expressed in CHOK1 cells co-expressing Galphaq16 assessed as apparent equilibrium constant after 90 secs by […]-4 AM dye-based FLIPR assay. It is filed as cell-based.
For the next data set, the target named is Cannabinoid receptor 2 (Homo sapiens, UniProt P34972). The data set is described as follows: Displacement of [3H]-CP55940 from human CB2 receptor expressed in CHO cell membranes. A general note: Loss of bound radioactivity is the signal in a displacement assay; it reports binding, not function.
Data set [2] concerns the target T1, Cannabinoid receptor 1. The data set is described as follows: Displacement of [3H]-CP55940 from human CB1 receptor expressed in CHO cell membranes.
Data set [3] in a line: Cmax in C57BL6 mouse plasma at 0.3 mg/kg, po by LC-MS/MS analysis. Type of data set: ADME, organism-based. On the set-up: dose 0.3 mg/kg, route oral.
The next data set is filed under the species Homo sapiens. The data set is described as follows: Selectivity ratio of Ki for displacement of [3H]-CP55940 from human CB2 receptor expressed in CHO cell membranes to Ki for displacement of [3H]-CP55940 from human CB1 receptor expressed in CHO cell membranes.
Data set [4] can be described thus: Drug uptake in C57BL6 mouse brain at […], po by LC-MS/MS analysis. As to conditions: in vivo. Type of data set: ADME, organism-based.
Data set [5] is described as follows: Ratio of Cmax in brain to plasma in C57BL6 mouse at […], po by LC-MS/MS analysis. It is filed as ADME, organism-based.
Data set [6] can be described thus: Cmax in C57BL6 mouse plasma at […], po by LC-MS/MS analysis. It is filed as ADME, organism-based. The arrangement: dose 2.5 mg/kg, route oral.
The nature of data set [7]: Half life in C57BL6 mouse plasma at […], po by LC-MS/MS analysis. Type of data set: ADME, organism-based.
Data set [8] addresses T1, Cannabinoid receptor 1. The data set is described as follows: Inverse agonist activity at human CB1 receptor expressed in CHOK1 cells co-expressing Galphaq16 assessed as inhibition of calcium mobilization after 90 secs by […]-4 AM dye-based FLIPR assay. Type of data set: functional, cell-based.
The nature of data set [9]: Half life in human liver microsomes at 1 uM by mass mass spectrometric method. It is filed as ADME, Microsome. The settings on record: microsomes, 1 µM. (Microsomes from liver hold many membrane-bound enzymes, among them those of drug oxidation.)
Data set [10] in a line: Intrinsic clearance in human liver microsomes at 1 uM incubated for up to 120 mins by mass mass spectrometric method. It is filed as ADME, Microsome. The settings on record: microsomes, 2 h, 1 µM.
The nature of data set [11]: Lipophilicity, log D of compound. It is filed as physicochemical. The settings on record: octanol/water.
Data set [12] is described as follows: Permeability across apical to basolateral side in MDCK-MDR1 cells at 10 uM incubated for 1 hr by mass spectrometric method. The settings on record: dog, mdck-mdr1, 1 h. It is filed as ADME, cell-based, Canis lupus familiaris.

In general, Ki refers to the equilibrium dissociation constant of an inhibitor or competing ligand from its target. A higher Ki goes with a looser hold on the target. The term Cmax denotes the highest concentration seen after dosing. For orientation: half-life means the time in which the quantity being followed falls by half. A high value points to slow decline. For orientation: EC50 means the concentration giving half of the maximal effect. What is called logD is lipophilicity at a set pH, counting ionised and neutral species.

T1 sequence (P21554 whole entry): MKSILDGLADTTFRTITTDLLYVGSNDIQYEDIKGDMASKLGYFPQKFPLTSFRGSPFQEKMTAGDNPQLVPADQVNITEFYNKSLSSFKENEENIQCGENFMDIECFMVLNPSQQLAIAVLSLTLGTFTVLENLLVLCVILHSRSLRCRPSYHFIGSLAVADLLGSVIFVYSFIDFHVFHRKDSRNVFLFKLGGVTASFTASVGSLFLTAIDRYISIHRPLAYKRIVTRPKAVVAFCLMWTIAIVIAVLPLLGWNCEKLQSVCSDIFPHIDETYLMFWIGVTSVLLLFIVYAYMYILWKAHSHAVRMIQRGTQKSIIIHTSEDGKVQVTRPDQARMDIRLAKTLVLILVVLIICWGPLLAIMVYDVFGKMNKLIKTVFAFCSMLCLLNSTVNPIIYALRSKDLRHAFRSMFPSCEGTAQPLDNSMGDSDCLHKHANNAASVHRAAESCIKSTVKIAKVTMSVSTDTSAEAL
Chain of Cannabinoid receptor 2 (P34972 whole entry): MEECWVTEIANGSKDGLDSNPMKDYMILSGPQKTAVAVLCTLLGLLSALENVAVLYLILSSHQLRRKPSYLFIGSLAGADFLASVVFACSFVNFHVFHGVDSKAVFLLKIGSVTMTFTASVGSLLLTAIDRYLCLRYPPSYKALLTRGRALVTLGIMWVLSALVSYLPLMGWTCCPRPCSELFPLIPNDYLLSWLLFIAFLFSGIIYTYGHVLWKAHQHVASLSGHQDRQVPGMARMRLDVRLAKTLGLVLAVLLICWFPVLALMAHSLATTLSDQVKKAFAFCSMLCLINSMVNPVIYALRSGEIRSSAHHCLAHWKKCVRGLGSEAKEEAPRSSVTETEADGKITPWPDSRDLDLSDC

Take `O=S(=O)(NC1CCCCC1)NC1CCN(c2ncnc3c2nc(-c2ccccc2Cl)n3-c2ccc(Cl)cc2)CC1`: the Ke(app) on Cannabinoid receptor 1 [1] was 8 nM. Moreover, the Ki was found to be 330 nM at Cannabinoid receptor 2 and 5 nM at Cannabinoid receptor 1 [2]. This compound displayed a Cmax in data set [3] of 4 ng/mL. Also, in the data set filed under Homo sapiens, the Ratio Ki stood at 66.
Regarding `O=S(=O)(NC1CCN(c2ncnc3c2nc(-c2ccccc2Cl)n3-c2ccc(OC(F)F)nc2)CC1)c1ccc(F)c(F)c1`, the Ke(app) on Cannabinoid receptor 1 [1] was 1.6 nM. In addition, the Ki turned out to be 860 nM at Cannabinoid receptor 2 and 3 nM on Cannabinoid receptor 1 [2]. Besides, the Drug uptake in [4] is given as < 20%. Besides, the Ratio in data set [5] worked out at 0.18. Moreover, the Cmax in data set [6] turned out to be 62 ng/mL. Besides, in data set [7], the half-life is 96 min. Also, on Cannabinoid receptor 1 [8], the EC50 was 132 nM. The t1/2 in [9] amounted to 274 min. In the data set listed under Homo sapiens, the Ratio Ki turned out to be 290. In addition, the CLH in data set [10] is 5 µL/min/mg.
Turning to `N=C(NC1CCN(c2ncnc3c2nc(-c2ccccc2Cl)n3-c2ccc(Cl)cc2)CC1)c1ccc(F)cc1`, on Cannabinoid receptor 1 [1], the Ke(app) is 170 nM. This compound also came in with a Ki at Cannabinoid receptor 1 [2] of 780 nM. For the same compound, the Drug uptake in data set [4] is < 20%. In [5], the Ratio was found to be 0.16. The compound further gave a Cmax in [6] of 50 ng/mL. Moreover, in data set [11], the logD worked out at 4.1. This compound showed a half-life in data set [7] of 360 min. Moreover, the permeability in [12] is recorded as 0.2%. In data set [9], this compound displayed a t1/2 of 166 min. Moreover, the Ratio Ki in the data set filed under Homo sapiens was > 7. The same compound returned a CLH in data set [10] of 8 µL/min/mg.

Source of the values: ChEMBL document CHEMBL4385641 (Bioorg Med Chem, 2019).
